Experimental data published in BindingDB's records for PubMed 7965790 (University of Nebraska, 1994).

Columns and labels:
[1] = molecular target: T1, Alpha-2A adrenergic receptor (Sus scrofa, UniProt P18871)
T1 sequence (P18871 whole entry): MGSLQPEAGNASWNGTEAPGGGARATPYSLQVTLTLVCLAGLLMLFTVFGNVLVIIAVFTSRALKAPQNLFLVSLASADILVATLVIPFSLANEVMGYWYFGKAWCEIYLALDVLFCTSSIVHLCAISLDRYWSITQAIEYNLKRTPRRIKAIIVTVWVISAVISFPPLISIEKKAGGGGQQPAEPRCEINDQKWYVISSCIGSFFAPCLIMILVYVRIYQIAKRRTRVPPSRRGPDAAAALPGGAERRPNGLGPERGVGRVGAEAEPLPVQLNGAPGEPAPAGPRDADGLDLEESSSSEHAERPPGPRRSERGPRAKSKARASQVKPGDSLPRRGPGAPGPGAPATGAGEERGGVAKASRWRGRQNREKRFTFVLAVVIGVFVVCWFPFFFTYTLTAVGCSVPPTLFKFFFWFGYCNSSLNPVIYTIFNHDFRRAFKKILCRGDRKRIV

[2] = molecular target: T2, Alpha-2A adrenergic receptor (Bos taurus, UniProt Q28838)
T2 sequence (Q28838 whole entry): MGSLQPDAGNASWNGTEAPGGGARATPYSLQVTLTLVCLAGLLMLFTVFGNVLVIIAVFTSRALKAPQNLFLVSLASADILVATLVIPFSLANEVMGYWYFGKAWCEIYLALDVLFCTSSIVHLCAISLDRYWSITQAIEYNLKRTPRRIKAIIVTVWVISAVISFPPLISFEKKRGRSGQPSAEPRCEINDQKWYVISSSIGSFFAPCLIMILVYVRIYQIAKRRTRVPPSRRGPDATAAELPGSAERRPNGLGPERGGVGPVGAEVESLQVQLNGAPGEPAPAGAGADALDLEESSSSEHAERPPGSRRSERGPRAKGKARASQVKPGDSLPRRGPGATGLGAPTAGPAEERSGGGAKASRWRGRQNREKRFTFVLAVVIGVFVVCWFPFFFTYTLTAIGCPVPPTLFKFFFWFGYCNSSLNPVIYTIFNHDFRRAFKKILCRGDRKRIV

[3] = molecular target: T3, Alpha-2A adrenergic receptor [16-465] (Rattus norvegicus, UniProt P22909)
T3 construct: 16-465
T3 sequence (P22909 whole entry): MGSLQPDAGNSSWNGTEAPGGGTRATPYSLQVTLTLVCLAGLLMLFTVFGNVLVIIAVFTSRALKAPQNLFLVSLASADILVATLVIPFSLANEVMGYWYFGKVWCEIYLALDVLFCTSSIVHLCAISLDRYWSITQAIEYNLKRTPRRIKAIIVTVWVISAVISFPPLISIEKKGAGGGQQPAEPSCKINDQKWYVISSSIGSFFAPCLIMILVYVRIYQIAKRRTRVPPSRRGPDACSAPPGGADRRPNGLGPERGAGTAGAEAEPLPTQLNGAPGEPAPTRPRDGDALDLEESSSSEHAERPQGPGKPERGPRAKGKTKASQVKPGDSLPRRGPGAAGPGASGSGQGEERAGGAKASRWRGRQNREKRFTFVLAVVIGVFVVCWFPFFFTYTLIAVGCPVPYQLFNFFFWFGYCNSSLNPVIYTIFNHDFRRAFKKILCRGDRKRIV

| Ki [1] | Ki [2] | Ki [3] | Compound |
| --- | --- | --- | --- |
| 64 nM | 884 nM |  | CN(C)CCCN1c2ccccc2Sc2ccc(Cl)cc21 [[3-(2-Chloro-phenothiazin-10-yl)-propyl]-dimethyl-amine(Chlorpromazine)] |
| 371 nM | 1090 nM |  | NCC(O)c1ccc(O)c(O)c1 (stereo not drawn) [Noradrenaline,(+)] |
| 1160 nM | 1370 nM |  | COc1cc2nc(N3CCN(C(=O)c4ccco4)CC3)nc(N)c2cc1OC [[3H]-Minipress] |
| 3.19 nM | 35 nM |  | Cc1cc(C(C)(C)C)c(O)c(C)c1CC1=NCCN1 [SMR000059324] |
| 2.87 nM |  |  | Cc1ccc(N(CC2=NCCN2)c2cccc(O)c2)cc1 [SMR000059054] |

The next lines start with the compound.

| Compound | Ki [1] | Ki [2] | Ki [3] |
| --- | --- | --- | --- |
| O=C1NCN(c2ccccc2)C12CCN(CC1COc3ccccc3O1)CC2 (centres undefined) [8-(2,3-Dihydro-benzo[1,4]dioxin-2-ylmethyl)-1-phenyl-1,3,8-triaza-spiro[4.5]decan-4-one] | 3.36 nM | 10.5 nM | 70 nM |
| CN1C[C@H](Cn2ccnc2-c2ccccc2)C[C@@H]2c3cccc4[nH]c(Br)c(c34)C[C@H]21 [BAM-1303] | 0.52 nM | 149 nM | 35 nM |
| COc1cccc(OC)c1OCCNCC1Oc2ccccc2OC1c1ccccc1 (centres undefined) [NSC_185453] | 0.95 nM | 13.2 nM | 46 nM |
| COC(=O)C1=CO[C@@H](C)[C@@H]2CN3CCc4c([nH]c5ccccc45)[C@H]3C[C@H]12 [AKUAMMIGINE] |  | 1830 nM | 1210 nM |
| COC(=O)C1=COC(C)C2CN3CCc4c([nH]c5ccccc45)C3CC12 (centres undefined) [Ajmalicine] | 10 nM | 653 nM | 289 nM |
| COc1ccccc1N1CCN(CCC2C(=O)c3ccccc3C(C)(C)C2=O)CC1 (centres undefined) [NSC_122211] | 365 nM | 352 nM | 749 nM |
| CC(C)=CCOc1ccc(Cl)c2c1CCN(C)CC2 [SK&F-104078] | 35 nM | 153 nM | 248 nM |
